Where two headings read alike, the source gives them in different places.
Columns and labels:
Type in all cases: in vivo
Leptosphaeria nodorum = test: Glume Blotch of Wheat (LEPTNO), foliar spray, percent disease control; conditions: Parastagonospora nodorum, tested at 75 ppm
Protocol: The activity of the compounds as effective fungicides was determined by applying the compounds to plants and observing control of fungal disease. The compounds were formulated at 200 ppm in 10 vol. % acetone plus 90 vol. % Triton X water (deionized water 99.99 wt %+0.01 wt % Triton X100), giving a “formulated test compound.” In a few cases, compounds were formulated at 75 or 8.3 ppm rather than 200 ppm in 10 vol. % acetone plus 90 vol. % Triton X water (deionized water 99.99 wt. %+0.01 wt. % Triton X100), giving a “formulated test compound.” Formulated test compounds were applied to plants using a turn table sprayer fitted with two opposing air atomization nozzles which delivered approximately 1500 L/ha of spray volume. All plants were inoculated with spores of the fungus the day after treatment, then incubated in an environment conducive to disease development. Disease severity was evaluated 4 to 15 days later, depending on the disease and the speed of disease development. The following experiments were performed in the laboratory to determine the fungicidal efficacy of the compounds of the invention. […] Each pot contained 3-20 seedlings. These plants were sprayed until wet with the formulated test compound. On the following day, the leaves were inoculated with an aqueous spore suspension of Leptosphaeria nodorum and the plants were kept in high humidity (one day in a dark dew chamber followed by four days in a lighted dew chamber) to permit spores to germinate and infect the leaf. The plants were then transferred to a greenhouse until disease developed on untreated control plants. […] The effectiveness of the test compounds at controlling disease when sprayed on leaves was determined by assessing the severity of disease on treated plants, then converting the severity to percent control based on the level of disease on untreated, inoculated plants. Data are the level (in percent) at which the given disease was controlled when the given compound was applied to the foliage of the plants at 200 ppm. In a few cases (noted in the table) the compound was applied to the plants at 75 ppm or 8.3 ppm.

[1] = system: Puccinia recondita tritici; test: Leaf Rust of Wheat (PUCCRT), foliar spray, percent disease control; conditions: tested at 8.3 ppm
Protocol: The activity of the compounds as effective fungicides was determined by applying the compounds to plants and observing control of fungal disease. The compounds were formulated at 200 ppm in 10 vol. % acetone plus 90 vol. % Triton X water (deionized water 99.99 wt %+0.01 wt % Triton X100), giving a “formulated test compound.” In a few cases, compounds were formulated at 75 or 8.3 ppm rather than 200 ppm in 10 vol. % acetone plus 90 vol. % Triton X water (deionized water 99.99 wt. %+0.01 wt. % Triton X100), giving a “formulated test compound.” Formulated test compounds were applied to plants using a turn table sprayer fitted with two opposing air atomization nozzles which delivered approximately 1500 L/ha of spray volume. All plants were inoculated with spores of the fungus the day after treatment, then incubated in an environment conducive to disease development. Disease severity was evaluated 4 to 15 days later, depending on the disease and the speed of disease development. The following experiments were performed in the laboratory to determine the fungicidal efficacy of the compounds of the invention. […] Each pot contained 3-8 seedlings. These plants were sprayed until wet with the formulated test compounds. On the following day, the leaves were inoculated with an aqueous spore suspension of Puccinia recondita tritici and the plants were kept in high humidity overnight to permit spores to germinate and infect the leaf. The plants were then transferred to a greenhouse until disease developed on untreated control plants. […] The effectiveness of the test compounds at controlling disease when sprayed on leaves was determined by assessing the severity of disease on treated plants, then converting the severity to percent control based on the level of disease on untreated, inoculated plants. Data are the level (in percent) at which the given disease was controlled when the given compound was applied to the foliage of the plants at 200 ppm. In a few cases (noted in the table) the compound was applied to the plants at 75 ppm or 8.3 ppm.

Magnaporthe grisea = test: whole plant or invertebrate; conditions: Pyricularia oryzae, foliar, read-out: PYRIOR percent control
[2] = system: DROSME, AEDSAE, LAPHEG, or HELIVI; test: Insecticidal activity, active if any of DROSME, AEDSAE, LAPHEG or HELIVI was controlled at 80% or more; conditions: read-out: >80% mortality on any insect species @ 4000 ppm
[3] = system: Pseudoperonospora cubensis; test: Cucumber Downy Mildew (PSPECU), foliar spray, percent disease control; conditions: read-out: PSPECU percent control
Cochliobolus sativus = test: Spot Blotch of Wheat (COCHSA), foliar spray, percent disease control
Colletotricum lagenarium = test: Cucumber Anthracnose (COLLLA), foliar spray, percent disease control
[4] = Bipolaris sorokiniana, foliar; read-out: COCHSA percent control

SMILES | pest or weed control at 75 ppm (Leptosphaeria nodorum) [%] | pest or weed control at 8.3 ppm [1] [%] | pest or weed control at 8.3 ppm (Magnaporthe grisea) [%] | pest or weed control at 4000 ppm [2] [%] | pest or weed control at 200 µg/mL ([3]; foliar) [%] | pest or weed control at 200 µg/mL (Cochliobolus sativus; [4]) [%] | pest or weed control at 200 µg/mL (Colletotricum lagenarium; foliar) [%] | other results
N#Cc1c(Cl)cncc1Oc1cccc(CCNc2ncnc3nccnc23)c1 [Compound 70] | 0 to 49 | 50 to 79 | 50 to 79 |  |  |  |  | 
Cc1nc(NCCc2ccc(Oc3cc(C(F)(F)F)ccn3)cc2)c2nc(C)c(C)nc2n1 [Compound 226] | 0 to 49 | 0 to 49 | 0 to 49 |  |  |  |  | 
FC(F)(F)c1ccnc(Oc2ccc(CCOc3ncnc4nccnc34)cc2)c1 [Compound 206, 4-{2-[4-(4-Trifluoromethylpyridin-2-yloxy)-phenyl]-ethoxy}-pteridine] | 0 to 49 | 0 to 49 |  |  |  |  |  | 
CC(C)(C)OC(=O)c1ccc(Oc2ccc(CCNc3ncnc4nccnc34)cc2)cc1 [Compound 154] | 80 to 100 | 80 to 100 | 80 to 100 |  |  |  |  | 
COc1ccc(CCNc2ncnc3nccnc23)cc1 [Compound 45] | 0 to 49 | 50 to 79 | 80 to 100 |  |  |  |  | 
Fc1cc(Oc2ccc(C(F)(F)F)cn2)ccc1CCNc1ncnc2nccnc12 [Compound 105] | 80 to 100 | 80 to 100 | 80 to 100 |  |  |  |  | 
Cc1ccnc(Oc2ccc(CCNc3ncnc4nccnc34)cc2)c1F [Compound 99] | 50 to 79 | 80 to 100 | 80 to 100 |  |  |  |  | 
Clc1csc(Oc2ccc(CCNc3ncnc4nccnc34)cc2)n1 [Compound 31] | 0 to 49 | 50 to 79 | 80 to 100 |  |  |  |  | 
Cc1ccnc(Cl)c1Oc1ccc(CCNc2ncnc3nccnc23)cc1 [Compound 98] | 0 to 49 | 50 to 79 | 50 to 79 |  |  |  |  | 
FC(F)(F)c1ccnc(Oc2ccc(CCNc3ncnc4nccnc34)cc2C(F)(F)F)c1 [Compound 227] | 80 to 100 | 80 to 100 |  |  |  |  |  | 
Fc1cnc(C(F)(F)F)c(F)c1Oc1ccc(CCNc2ncnc3ncc(Cl)nc23)cc1 [Compound 117] | 50 to 79 | 50 to 79 | 80 to 100 | > 80 |  |  |  | 
FC(F)(F)c1cnc2nc(Oc3ccc(CCNc4ncnc5nccnc45)cc3)sc2c1 [Compound 32] | 0 to 49 | 50 to 79 | 50 to 79 |  |  |  |  | 
c1ccc(-c2nnsc2Oc2ccc(CCNc3ncnc4nccnc34)cc2)cc1 [Compound 58] |  |  |  | > 80 | 50 to 79 | 0 to 49 | 0 to 49 | 
Cc1cc(CCNc2ncnc3nccnc23)ccc1Oc1cncc(Cl)c1C#N [Compound 142] |  |  |  | > 80 | 80 to 100 | 0 to 49 | 0 to 49 | 
COc1ccc2c(c1)CC(Nc1ncnc3ncc(C)nc13)C2 (stereo not shown) [Compound 116] | 0 to 49 | 0 to 49 | 50 to 79 | > 80 |  |  |  | 
c1ccc(-c2ccc(CCNc3ncnc4nccnc34)cc2)cc1 [Compound 125] |  |  |  | > 80 | 80 to 100 |  | 50 to 79 | pest or weed control at 200 µg/mL (Cochliobolus sativus; Bipolaris sorokiniana, foliar, read-out: COCHSA percent control): 0 to 49%
FC(F)(F)c1ccc(Oc2ccc(OCCNc3ncnc4nccnc34)cc2)nc1 [Compound 84] |  |  |  | > 80 | 80 to 100 | 0 to 49 | 80 to 100 | 
COc1cc(CCNc2ncnc3nccnc23)ccc1Oc1cc(C(F)(F)F)ccn1 [Compound 51] |  |  |  | > 80 | 80 to 100 | 0 to 49 | 50 to 79 | 
N#Cc1cccc(Oc2ccc(CCNc3ncnc4nccnc34)cc2)n1 [Compound 13] |  |  |  | > 80 | 80 to 100 | 0 to 49 | 0 to 49 | 
Fc1cc(Oc2cc(C(F)(F)F)ccn2)ccc1CCNc1ncnc2nccnc12 [Compound 103] |  |  |  | > 80 | 80 to 100 | 0 to 49 | 0 to 49 | 
Fc1cc(Oc2ccc(CCNc3ncnc4nccnc34)cc2)c(F)cn1 [Compound 108] |  |  |  | > 80 | 80 to 100 | 0 to 49 | 0 to 49 | 
FC(F)(F)COc1ccc(CCNc2ncnc3nccnc23)cn1 [Compound 232] |  |  |  | > 80 |  |  |  | pest or weed control at 200 µg/mL ([3]; foliar spray): 80 to 100%; pest or weed control at 200 µg/mL (Cochliobolus sativus; Bipolaris sorokiniana; foliar spray; read-out: COCHSA percent control): 0 to 49%; pest or weed control at 200 µg/mL (Colletotricum lagenarium; foliar spray): 50 to 79%
Fc1nc(Oc2ccc(CCNc3ncnc4nccnc34)cc2)c(F)c(C(F)(F)F)c1F [Compound 138, Pteridin-4-yl-{2-[4-(3,5,6-trifluoro-4-trifluoromethyl-pyridin-2-yloxy)-phenyl]-ethyl}-amine] |  |  |  | > 80 | 80 to 100 | 0 to 49 | 80 to 100 | 
